In patent US9708314B2, “Heterocyclic amide compound” (NISSAN CHEMICAL INDUSTRIES, LTD., priority 2013, dated 2017):

Key:
Assay type in all cases: in vivo
[1] = test system: directly sowed Oryza sativa; experiment: Test Example 3: effect on crop by application to foliage (Wagner pot, water depth 0.1-0.5 cm); conditions: Nineteenth Table; application to foliage; application herbicide amount 320 g/ha
Outline: (§1)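 Seeds were sown in alluvial soil in Wagner pots, grown for 14 days at 25–30 °C, then sprayed uniformly on foliage with the emulsified compound diluted to a given rate per hectare. Injury was graded three weeks after treatment from 0 (≤5%) to 5 (≥90%).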

Cyperus difformis = experiment: Test Example 3: herbicidal effect by application to foliage (Wagner pot, water depth 0.1-0.5 cm); conditions: Nineteenth Table; application to foliage; application herbicide amount 320 g/ha
Outline: as §1

Leptochloa chinensis = experiment: as above; conditions: Nineteenth Table; application to foliage; application herbicide amount 320 g/ha
Outline: as §1

[2] = test system: Echinochloa crus-galli var. crus-galli; experiment: as above; conditions: Nineteenth Table; application to foliage; application herbicide amount 320 g/ha
Outline: as §1

Scirpus juncoides = experiment: Test Example 2: herbicidal activity, application during weed generation in submerged conditions; conditions: Eighteenth Table; application herbicide amount 320 g/ha
Outline: (§2)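 Alluvial soil in Wagner pots flooded to 4 cm water depth; seeds sown mixed, grown in greenhouse at 25–30 °C. At one- to two-leaf stage, emulsion diluted with water to the set rate (g/ha) was applied to the water surface. Effect scored 0–5 by herbicidal ratio three weeks later.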

[3] = test system: Echinochloa oryzacola Vasing.; experiment: as above; conditions: Eighteenth Table; application herbicide amount 320 g/ha
Outline: as §2

Monochoria vaginalis = experiment: as above; conditions: Eighteenth Table; application herbicide amount 320 g/ha
Outline: as §2

[4] = test system: transplanted Oryza sativa; experiment: Test Example 1: effect on crop, application before weed generation in submerged conditions; conditions: Application herbicide amount 320 g/ha; Seventeenth Table
Outline: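 Alluvial soil in Wagner pots flooded to 4 cm water depth; weed seeds sown and 2.5 leaf stage rice seedlings transplanted. Emulsion diluted in water applied to water surface on sowing day at stated g/ha. Greenhouse 25° C. to 30° C.; effects scored 0–5 by herbicidal ratio after three weeks.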

Question: With Cc1nnc2c(C(=O)Nc3nnnn3C)ccc(C(F)(F)F)n12 [2-002] as the compound, how does the “b (effect on crop grade)” value [1] read?
Answer: The value was 2 (Herbicidal ratio of 20% or more and less than 40%).

Question: What about the “E (herbicidal effect grade)” value (Cyperus difformis) of the same compound?
Answer: The value was 2 (Herbicidal ratio of 20% or more and less than 40%).

Question: And the “D (herbicidal effect grade)” value (Leptochloa chinensis)?
Answer: Its value is 4 (Herbicidal ratio of 70% or more and less than 90%).

Question: And the “H (herbicidal effect grade)” value [2]?
Answer: The value was 5 (Herbicidal ratio of 90% or more (almost completely withered)).

Question: And the “B (Scirpus juncoides) herbicidal ratio grade” value (Scirpus juncoides)?
Answer: The value was 1 (Herbicidal ratio of 5% or more and less than 20%).

Question: And the “A (Echinochloa oryzicola Vasing.) herbicidal ratio grade” value [3]?
Answer: Its value is 2 (Herbicidal ratio of 20% or more and less than 40%).

Question: And the “C (Monochoria vaginalis) herbicidal ratio grade” value (Monochoria vaginalis)?
Answer: The value was 2 (Herbicidal ratio of 20% or more and less than 40%).

Question: What about the “a: transplanted Oryza sativa (effect on crop grade)” value (shortened to “a: transplanted Oryza sativa”) [4] of the same compound?
Answer: Its value is 0 (Herbicidal ratio of 5% or less (almost no effect)).

Question: How did the “b (effect on crop grade)” value [1] turn out when CSCCNc1nnc2c(C(=O)Nc3nnnn3C)ccc(C(F)(F)F)n12 [2-080] was run?
Answer: Its value is 3 (Herbicidal ratio of 40% or more and less than 70%).

Question: What about the “E (herbicidal effect grade)” value (Cyperus difformis) of the same compound?
Answer: Its value is 5 (Herbicidal ratio of 90% or more (almost completely withered)).

Question: What about the “D (herbicidal effect grade)” value (Leptochloa chinensis) of the same compound?
Answer: The value was 5 (Herbicidal ratio of 90% or more (almost completely withered)).

Question: And the “H (herbicidal effect grade)” value [2]?
Answer: The value was 4 (Herbicidal ratio of 70% or more and less than 90%).

Question: What about the “B (Scirpus juncoides) herbicidal ratio grade” value (Scirpus juncoides) of the same compound?
Answer: Its value is 1 (Herbicidal ratio of 5% or more and less than 20%).

Question: And the “A (Echinochloa oryzicola Vasing.) herbicidal ratio grade” value [3]?
Answer: The value was 2 (Herbicidal ratio of 20% or more and less than 40%).

Question: And the “C (Monochoria vaginalis) herbicidal ratio grade” value (Monochoria vaginalis)?
Answer: The value was 0 (Herbicidal ratio of 5% or less (almost no effect)).

Question: And the “a: transplanted Oryza sativa” value [4]?
Answer: The value was 2 (Herbicidal ratio of 20% or more and less than 40%).

Question: Which results are given for CCC(C)Sc1nnc2c(C(=O)Nc3nnnn3C)ccc(C(F)(F)F)n12 (centres unmarked) [2-072]?
Answer: b (effect on crop grade) [1]: 1 (Herbicidal ratio of 5% or more and less than 20%); E (herbicidal effect grade) (Cyperus difformis): 5 (Herbicidal ratio of 90% or more (almost completely withered)); D (herbicidal effect grade) (Leptochloa chinensis): 5 (Herbicidal ratio of 90% or more (almost completely withered)); H (herbicidal effect grade) [2]: 4 (Herbicidal ratio of 70% or more and less than 90%); B (Scirpus juncoides) herbicidal ratio grade (Scirpus juncoides): 5 (Herbicidal ratio of 90% or more (almost completely withered)); A (Echinochloa oryzicola Vasing.) herbicidal ratio grade [3]: 5 (Herbicidal ratio of 90% or more (almost completely withered)); C (Monochoria vaginalis) herbicidal ratio grade (Monochoria vaginalis): 5 (Herbicidal ratio of 90% or more (almost completely withered)); a: transplanted Oryza sativa (effect on crop grade) [4]: 3 (Herbicidal ratio of 40% or more and less than 70%)

Question: Cn1nnnc1NC(=O)c1ccc(C(F)(F)F)n2c(-c3cc(Cl)cc(Cl)c3)nnc12 [2-064] was tested. Which “b (effect on crop grade)” value [1] did it give?
Answer: Its value is 0 (Herbicidal ratio of 5% or less (almost no effect)).

Question: And the “E (herbicidal effect grade)” value (Cyperus difformis)?
Answer: Its value is 5 (Herbicidal ratio of 90% or more (almost completely withered)).

Question: What about the “D (herbicidal effect grade)” value (Leptochloa chinensis) of the same compound?
Answer: Its value is 4 (Herbicidal ratio of 70% or more and less than 90%).

Question: What about the “H (herbicidal effect grade)” value [2] of the same compound?
Answer: Its value is 1 (Herbicidal ratio of 5% or more and less than 20%).

Question: And the “B (Scirpus juncoides) herbicidal ratio grade” value (Scirpus juncoides)?
Answer: The value was 4 (Herbicidal ratio of 70% or more and less than 90%).

Question: And the “A (Echinochloa oryzicola Vasing.) herbicidal ratio grade” value [3]?
Answer: The value was 3 (Herbicidal ratio of 40% or more and less than 70%).

Question: What about the “C (Monochoria vaginalis) herbicidal ratio grade” value (Monochoria vaginalis) of the same compound?
Answer: Its value is 3 (Herbicidal ratio of 40% or more and less than 70%).

Question: And the “a: transplanted Oryza sativa” value [4]?
Answer: Its value is 3 (Herbicidal ratio of 40% or more and less than 70%).

Question: Which results are given for CC(C)CSc1nnc2c(C(=O)Nc3nnnn3C)ccc(C(F)(F)F)n12 [2-071]?
Answer: b (effect on crop grade) [1]: 3 (Herbicidal ratio of 40% or more and less than 70%); E (herbicidal effect grade) (Cyperus difformis): 5 (Herbicidal ratio of 90% or more (almost completely withered)); D (herbicidal effect grade) (Leptochloa chinensis): 5 (Herbicidal ratio of 90% or more (almost completely withered)); H (herbicidal effect grade) [2]: 4 (Herbicidal ratio of 70% or more and less than 90%); B (Scirpus juncoides) herbicidal ratio grade (Scirpus juncoides): 5 (Herbicidal ratio of 90% or more (almost completely withered)); A (Echinochloa oryzicola Vasing.) herbicidal ratio grade [3]: 3 (Herbicidal ratio of 40% or more and less than 70%); C (Monochoria vaginalis) herbicidal ratio grade (Monochoria vaginalis): 5 (Herbicidal ratio of 90% or more (almost completely withered)); a: transplanted Oryza sativa (effect on crop grade) [4]: 4 (Herbicidal ratio of 70% or more and less than 90%)

Question: COCCN(C)c1nnc2c(C(=O)Nc3nnnn3C)ccc(C(F)(F)F)n12 [2-079] was tested. Which “b (effect on crop grade)” value [1] did it give?
Answer: Its value is 5 (Herbicidal ratio of 90% or more (almost completely withered)).

Question: And the “E (herbicidal effect grade)” value (Cyperus difformis)?
Answer: Its value is 5 (Herbicidal ratio of 90% or more (almost completely withered)).

Question: And the “D (herbicidal effect grade)” value (Leptochloa chinensis)?
Answer: Its value is 5 (Herbicidal ratio of 90% or more (almost completely withered)).

Question: And the “H (herbicidal effect grade)” value [2]?
Answer: The value was 5 (Herbicidal ratio of 90% or more (almost completely withered)).

Question: And the “B (Scirpus juncoides) herbicidal ratio grade” value (Scirpus juncoides)?
Answer: Its value is 5 (Herbicidal ratio of 90% or more (almost completely withered)).

Question: And the “A (Echinochloa oryzicola Vasing.) herbicidal ratio grade” value [3]?
Answer: Its value is 5 (Herbicidal ratio of 90% or more (almost completely withered)).

Question: And the “C (Monochoria vaginalis) herbicidal ratio grade” value (Monochoria vaginalis)?
Answer: Its value is 5 (Herbicidal ratio of 90% or more (almost completely withered)).

Question: What about the “a: transplanted Oryza sativa” value [4] of the same compound?
Answer: The value was 4 (Herbicidal ratio of 70% or more and less than 90%).

Question: For COc1cccc(-c2nnc3c(C(=O)Nc4nnnn4C)ccc(C(F)(F)F)n23)c1 [2-044], which “b (effect on crop grade)” value [1] is on record?
Answer: The value was 5 (Herbicidal ratio of 90% or more (almost completely withered)).

Question: What about the “E (herbicidal effect grade)” value (Cyperus difformis) of the same compound?
Answer: The value was 5 (Herbicidal ratio of 90% or more (almost completely withered)).

Question: What about the “D (herbicidal effect grade)” value (Leptochloa chinensis) of the same compound?
Answer: The value was 5 (Herbicidal ratio of 90% or more (almost completely withered)).

Question: And the “H (herbicidal effect grade)” value [2]?
Answer: The value was 5 (Herbicidal ratio of 90% or more (almost completely withered)).

Question: And the “B (Scirpus juncoides) herbicidal ratio grade” value (Scirpus juncoides)?
Answer: The value was 4 (Herbicidal ratio of 70% or more and less than 90%).

Question: What about the “A (Echinochloa oryzicola Vasing.) herbicidal ratio grade” value [3] of the same compound?
Answer: The value was 5 (Herbicidal ratio of 90% or more (almost completely withered)).

Question: What about the “C (Monochoria vaginalis) herbicidal ratio grade” value (Monochoria vaginalis) of the same compound?
Answer: Its value is 4 (Herbicidal ratio of 70% or more and less than 90%).

Question: And the “a: transplanted Oryza sativa” value [4]?
Answer: The value was 4 (Herbicidal ratio of 70% or more and less than 90%).

Question: For CN(c1nnc2c(C(=O)Nc3nnnn3C)ccc(C(F)(F)F)n12)C1CCCCC1 [2-083], which “b (effect on crop grade)” value [1] is on record?
Answer: The value was 0 (Herbicidal ratio of 5% or less (almost no effect)).

Question: And the “E (herbicidal effect grade)” value (Cyperus difformis)?
Answer: The value was 5 (Herbicidal ratio of 90% or more (almost completely withered)).

Question: What about the “D (herbicidal effect grade)” value (Leptochloa chinensis) of the same compound?
Answer: Its value is 4 (Herbicidal ratio of 70% or more and less than 90%).

Question: And the “H (herbicidal effect grade)” value [2]?
Answer: Its value is 4 (Herbicidal ratio of 70% or more and less than 90%).

Question: And the “B (Scirpus juncoides) herbicidal ratio grade” value (Scirpus juncoides)?
Answer: Its value is 3 (Herbicidal ratio of 40% or more and less than 70%).

Question: And the “A (Echinochloa oryzicola Vasing.) herbicidal ratio grade” value [3]?
Answer: The value was 3 (Herbicidal ratio of 40% or more and less than 70%).

Question: And the “C (Monochoria vaginalis) herbicidal ratio grade” value (Monochoria vaginalis)?
Answer: Its value is 3 (Herbicidal ratio of 40% or more and less than 70%).

Question: What about the “a: transplanted Oryza sativa” value [4] of the same compound?
Answer: The value was 2 (Herbicidal ratio of 20% or more and less than 40%).

Question: How did the “b (effect on crop grade)” value [1] turn out when Cn1nnnc1NC(=O)c1ccc(C(F)(F)F)n2c(N3CCOCC3)nnc12 [2-075] was run?
Answer: The value was 5 (Herbicidal ratio of 90% or more (almost completely withered)).

Question: And the “E (herbicidal effect grade)” value (Cyperus difformis)?
Answer: Its value is 5 (Herbicidal ratio of 90% or more (almost completely withered)).

Question: And the “D (herbicidal effect grade)” value (Leptochloa chinensis)?
Answer: The value was 5 (Herbicidal ratio of 90% or more (almost completely withered)).

Question: What about the “H (herbicidal effect grade)” value [2] of the same compound?
Answer: Its value is 5 (Herbicidal ratio of 90% or more (almost completely withered)).

Question: And the “B (Scirpus juncoides) herbicidal ratio grade” value (Scirpus juncoides)?
Answer: Its value is 5 (Herbicidal ratio of 90% or more (almost completely withered)).

Question: And the “A (Echinochloa oryzicola Vasing.) herbicidal ratio grade” value [3]?
Answer: Its value is 5 (Herbicidal ratio of 90% or more (almost completely withered)).

Question: What about the “C (Monochoria vaginalis) herbicidal ratio grade” value (Monochoria vaginalis) of the same compound?
Answer: The value was 5 (Herbicidal ratio of 90% or more (almost completely withered)).

Question: And the “a: transplanted Oryza sativa” value [4]?
Answer: The value was 5 (Herbicidal ratio of 90% or more (almost completely withered)).

Question: What does the source list for CC(C)c1nnc2c(C(=O)Nc3nnnn3-c3ccccc3)ccc(C(F)(F)F)n12 [2-073]?
Answer: b (effect on crop grade) [1]: 2 (Herbicidal ratio of 20% or more and less than 40%); E (herbicidal effect grade) (Cyperus difformis): 5 (Herbicidal ratio of 90% or more (almost completely withered)); D (herbicidal effect grade) (Leptochloa chinensis): 3 (Herbicidal ratio of 40% or more and less than 70%); H (herbicidal effect grade) [2]: 4 (Herbicidal ratio of 70% or more and less than 90%); B (Scirpus juncoides) herbicidal ratio grade (Scirpus juncoides): 2 (Herbicidal ratio of 20% or more and less than 40%); A (Echinochloa oryzicola Vasing.) herbicidal ratio grade [3]: 2 (Herbicidal ratio of 20% or more and less than 40%); C (Monochoria vaginalis) herbicidal ratio grade (Monochoria vaginalis): 3 (Herbicidal ratio of 40% or more and less than 70%); a: transplanted Oryza sativa (effect on crop grade) [4]: 2 (Herbicidal ratio of 20% or more and less than 40%)
